Seven compounds from patent US7247627B2, “Salts and polymorphs of a pyrrole-substituted indolinone compound” (Pharmacia & Upjohn Company, priority 2003, dated 2007) can be followed below.

The structures appear in SMILES notation. Where a name gives a salt, the structure may show the parent alone.

Data set [1] can be described thus: Hygroscopicity by dynamic moisture sorption gravimetry (DMSG). The format is physicochemical. To be noted: for hygroscopicity / hysteresis of sorption profile / Water Uptake at 80% RH (wt. %): DMSG; for Water Uptake at 80% RH (wt. %): 25° C. The method, then: In one embodiment, the invention provides a non-hygroscopic salt of 5-[(Z)-(5-fluoro-2-oxo-1,2-dihydro-3H-indol-3-ylidene)methyl]-N-[(2S)-2-hydroxy-3-morpholin-4-ylpropyl]-2,4-dimethyl-1H-pyrrole-3-carboxamide. Hygroscopicity is determined by dynamic moisture sorption gravimetry (DMSG) using a controlled atmosphere microbalance at a temperature of 25° C. Samples are analyzed over a relative humidity range of from 0 to 90% in 3% steps. Each step is brought to equilibrium before moving to the next step, with equilibrium assessed as a weight change of less than 0.002 mg (0.02%) for five consecutive points at 1 point per 120 seconds.
Several salts of 5-[(Z)-(5-fluoro-2-oxo-1,2-dihydro-3H-indol-3-ylidene)methyl]-N-[(2S)-2-hydroxy-3-morpholin-4-ylpropyl]-2,4-dimethyl-1H-pyrrole-3-carboxamide were produced and analyzed for hygroscopicity. Hygroscopicity was determined by dynamic moisture sorption gravimetry (DMSG) using a controlled atmosphere microbalance at a temperature of 25° C. Samples were analyzed over a relative humidity range of from 0 to 90% in 3% steps, in a humidity profile of […], where the initial value of 36% reflects the approximate initial equilibrated relative humidity (not specifically measured). Each step was brought to equilibrium before moving to the next step, with equilibrium assessed as a weight change of less than 0.001 mg (0.01%) or 0.002 mg (0.02%) for five consecutive points at 1 point per 120 seconds. The water uptake at 80% relative humidity (RH) was selected for comparison between the salts. The 80% RH values for each salt are shown in Table 5, and the right column of the table identifies the corresponding Figure showing the complete DMSG scan. A range of values given for the water uptake at 80% reflects hysteresis in the 0→90% and 90→0% scans.

Data set [2] can be described thus: Chemical stability in temperature and humidity-controlled chamber (Example 2). The format is physicochemical. Details: key to Appearance: U: unchanged. As to the method: Chemical stability was assessed for two different samples of 5-[(Z)-(5-fluoro-2-oxo-1,2-dihydro-3H-indol-3-ylidene)methyl]-N-[(2S)-2-hydroxy-3-morpholin-4-ylpropyl]-2,4-dimethyl-1H-pyrrole-3-carboxamide maleate salt, polymorph Form 1. Samples were maintained in a temperature and humidity-controlled chamber at 25° C. and 60% relative humidity (Tables 7 and 8) or at 40° C. and 75% relative humidity (Tables 9 and 10). At various time intervals, material was removed and tested for maleate counterion assay, impurities, water content and enantiomeric purity.
The maleate counterion assay was determined by ion exchange chromatography (IEC).
A suitable amount of the maleate salt is dissolved in water (Milli Q grade) and analyzed by IEC, and compared to calibration samples. Under these conditions, the peak due to maleic acid has a retention time of about 11 minutes. The amount of maleic acid in the sample is calculated as: % Assay=(Cs/W)×100 where Cs is the concentration of maleic acid found in the sample, and W is the theoretical sample concentration in the aqueous solution.
The amounts of impurities and degradation products were determined by HPLC, using a Perkin Elmer LC 200 system with a diode array detector. The analytical column was a Waters Xterra RP18, 5 μm, 250×4.6 mm, and the guard column was a Waters Xterra RP18, 5 μm, 20×3.9 mm. Mobile phase A was a mixture of 90% 0.05 M ammonium acetate buffer at pH 5.5 and 10% acetonitrile. Mobile phase B was a mixture of 10% 0.05 M ammonium acetate buffer at pH 5.5 and 90% acetonitrile.
Flow rate was 1 mL/min, injection volume 30 μL, room temperature, 435 nm detection. Under these conditions, the peak due to the maleate salt has a retention time of about 24 minutes. Impurities are characterized by their relative retention time (RRT). The impurity at RRT=0.26 is the E isomer. The other impurities were not characterized.
Enantiomeric purity was determined by HPLC, using a Chiralpak AD analytical column, 10 μm, 250×4.6 mm (Daicel Chemical Industries, Ltd.) using an oven temperature of 30° C., a mobile phase of 2-propanol/heptane/diethylamine (50/50/0.1), an isocratic elution mode, a flow rate of 0.5 mL/min, injection volume of 50 μL, detector wavelength of 265 nm, dilution solvent 2-propanol/heptane (50/50) and a sample concentration of 0.3 mg/mL. Under these conditions, the S isomer has a retention time of about 15.5 minutes, and the R isomer has a retention time of about 22 minutes.
Water content was determined according to USP 25, <921>, Method Ic.

Where [3] appears, read: 25° C. and 60% Relative Humidity, 1 mo.
[4] abbreviates: 25° C. and 60% Relative Humidity, 3 mo.
Setting [5] is: 25° C. and 60% Relative Humidity, 6 mo.
[6] abbreviates: 25° C. and 60% Relative Humidity, Initial.
[7] abbreviates: 40° C. and 75% Relative Humidity, 1 mo.
Setting [8] is: 40° C. and 75% Relative Humidity, 3 mo.
Where [9] appears, read: 40° C. and 75% Relative Humidity, 6 mo.
[10] abbreviates: 40° C. and 75% Relative Humidity, Initial.

With `Cc1[nH]c(/C=C2\C(=O)Nc3ccc(F)cc32)c(C)c1C(=O)NC[C@H](O)CN1CCOCC1` [HCl, form 2, 5-[(Z)-(5-fluoro-2-oxo-1,2-dihydro-3H-indol-3-ylidene)methyl]-N-[(2S)-2-hydroxy-3-morpholin-4-ylpropyl]-2,4-dimethyl-1H-pyrrole-3-carboxamide], in data set [1], the hygroscopicity entry was “relatively non-hygroscopic” and the “hysteresis of sorption profile” value is reported as “no significant hysteresis”. Moreover, the “Water Uptake at 80% RH (wt. %)” value in data set [1] (80% relative humidity) was determined as 1.2 wt. %.
`Cc1[nH]c(/C=C2\C(=O)Nc3ccc(F)cc32)c(C)c1C(=O)NC[C@H](O)CN1CCOCC1` [initial maleate salt, 5-[(Z)-(5-fluoro-2-oxo-1,2-dihydro-3H-indol-3-ylidene)methyl]-N-[(2S)-2-hydroxy-3-morpholin-4-ylpropyl]-2,4-dimethyl-1H-pyrrole-3-carboxamide]: in data set [1] (80% relative humidity), the moisture uptake result is recorded as “about 9%”. Moreover, the hygroscopicity result in data set [1] is “hygroscopic”.
With `Cc1[nH]c(/C=C2\C(=O)Nc3ccc(F)cc32)c(C)c1C(=O)NC[C@H](O)CN1CCOCC1` [Sample B, 5-[(Z)-(5-fluoro-2-oxo-1,2-dihydro-3H-indol-3-ylidene)methyl]-N-[(2S)-2-hydroxy-3-morpholin-4-ylpropyl]-2,4-dimethyl-1H-pyrrole-3-carboxamide], in data set [2] (setting [3]), the Appearance entry is recorded as “U^a”, the “Assay (% free base equivalent)” value stood at 98.2 % free base equivalent, the “Impurities (%) RRT 0.26” value is reported as 0.06% and the “Impurities (%) RRT 0.51” value stood at 0.62%. For the same compound, in data set [2] (setting [3]), the “Impurities (%) RRT 0.71” value is listed as 0.09%, the “Impurities (%) RRT 1.53” value is 0.09%, the “Impurities (%) RRT 1.74” value is 0.06% and the “Impurities (%) RRT 1.84” value was determined as 0.08%. In data set [2] (setting [3]), the “Total Impurities (%)” value was 1.00% and the “Water Content (%)” value is 0.50%. Moreover, in data set [2] (setting [4]), the Appearance entry was “U^a”, the “Assay (% free base equivalent)” value is on record as 98.2 % free base equivalent, the “Impurities (%) RRT 0.26” value was determined as 0.18% and the “Impurities (%) RRT 0.51” value is 0.61%. For the same compound, in data set [2] (setting [4]), the “Impurities (%) RRT 0.71” value was 0.09%, the “Impurities (%) RRT 1.53” value worked out at 0.08%, the “Impurities (%) RRT 1.74” value is recorded as 0.05% and the “Impurities (%) RRT 1.84” value stood at 0.09%. Also, in data set [2] (setting [4]), the “Total Impurities (%)” value was 1.10% and the “Water Content (%)” value is 0.54%. Also, in data set [2] (setting [5]), the Appearance result is on record as “U^a”, the “Assay (% free base equivalent)” value came to 97.7 % free base equivalent, the “Impurities (%) RRT 0.26” value was 0.05% and the “Impurities (%) RRT 0.51” value was determined as 0.56%. For the same compound, in data set [2] (setting [5]), the “Impurities (%) RRT 0.71” value is given as 0.05%, the “Impurities (%) RRT 1.53” value is 0.08%, the “Impurities (%) RRT 1.74” value was found to be 0.06% and the “Impurities (%) RRT 1.84” value was determined as 0.09%. In addition, in data set [2] (setting [5]), the “Total Impurities (%)” value is on record as 0.90% and the “Water Content (%)” value turned out to be 0.47%. In addition, in data set [2] (setting [6]), the “Assay (% free base equivalent)” value is listed as 97.8 % free base equivalent, the “Enantiomeric Purity (%)” value is given as over 99.90%, the “Impurities (%) RRT 0.26” value is on record as 0.21% and the “Impurities (%) RRT 0.51” value is recorded as 0.68%. Also, in data set [2] (setting [6]), the “Impurities (%) RRT 0.71” value stood at 0.07%, the “Impurities (%) RRT 1.53” value worked out at 0.11%, the “Impurities (%) RRT 1.74” value is 0.07% and the “Impurities (%) RRT 1.84” value is on record as 0.10%. Also, in data set [2] (setting [6]), the “Total Impurities (%)” value turned out to be 1.24% and the “Water Content (%)” value is on record as 0.45%. Moreover, in data set [2] (setting [7]), the Appearance result is on record as “U^a”, the “Assay (% free base equivalent)” value came out at 98.2 % free base equivalent, the “Impurities (%) RRT 0.26” value is given as 0.13% and the “Impurities (%) RRT 0.51” value is recorded as 0.61%. Also, in data set [2] (setting [7]), the “Impurities (%) RRT 0.71” value was determined as 0.08%, the “Impurities (%) RRT 1.53” value is 0.10%, the “Impurities (%) RRT 1.74” value is on record as 0.06% and the “Impurities (%) RRT 1.84” value is listed as 0.08%. In data set [2] (setting [7]), the “Total Impurities (%)” value was 1.06% and the “Water Content (%)” value stood at 0.49%. Further, in data set [2] (setting [8]), the Appearance entry is reported as “U^a”, the “Assay (% free base equivalent)” value was determined as 97.2 % free base equivalent, the “Impurities (%) RRT 0.26” value is reported as 0.18% and the “Impurities (%) RRT 0.51” value was determined as 0.58%. Besides, in data set [2] (setting [8]), the “Impurities (%) RRT 0.71” value came to 0.08%, the “Impurities (%) RRT 1.53” value turned out to be 0.09%, the “Impurities (%) RRT 1.74” value is 0.05% and the “Impurities (%) RRT 1.84” value stood at 0.09%. Besides, in data set [2] (setting [8]), the “Total Impurities (%)” value is on record as 1.06% and the “Water Content (%)” value is 0.49%. Besides, in data set [2] (setting [9]), the Appearance result is reported as “U^a”, the “Assay (% free base equivalent)” value stood at 97.5 % free base equivalent, the “Enantiomeric Purity (%)” value is on record as over 99.9% and the “Impurities (%) RRT 0.26” value stood at 0.05%. Moreover, in data set [2] (setting [9]), the “Impurities (%) RRT 0.51” value was determined as 0.54%, the “Impurities (%) RRT 1.53” value is on record as 0.10%, the “Impurities (%) RRT 1.74” value worked out at 0.05% and the “Impurities (%) RRT 1.84” value is listed as 0.09%. For the same compound, in data set [2] (setting [9]), the “Total Impurities (%)” value worked out at 0.83% and the “Water Content (%)” value stood at 0.47%. Also, in data set [2] (setting [10]), the “Assay (% free base equivalent)” value worked out at 97.8 % free base equivalent, the “Enantiomeric Purity (%)” value was over 99.95%, the “Impurities (%) RRT 0.26” value was found to be 0.21% and the “Impurities (%) RRT 0.51” value amounted to 0.68%. In data set [2] (setting [10]), the “Impurities (%) RRT 0.71” value was 0.07%, the “Impurities (%) RRT 1.53” value was determined as 0.11%, the “Impurities (%) RRT 1.74” value is given as 0.07% and the “Impurities (%) RRT 1.84” value is on record as 0.10%. In addition, in data set [2] (setting [10]), the “Total Impurities (%)” value amounted to 1.24% and the “Water Content (%)” value is on record as 0.45%.
As to `Cc1[nH]c(/C=C2\C(=O)Nc3ccc(F)cc32)c(C)c1C(=O)NC[C@H](O)CN1CCOCC1` [HCl, form 1, 5-[(Z)-(5-fluoro-2-oxo-1,2-dihydro-3H-indol-3-ylidene)methyl]-N-[(2S)-2-hydroxy-3-morpholin-4-ylpropyl]-2,4-dimethyl-1H-pyrrole-3-carboxamide], the “Water Uptake at 80% RH (wt. %)” value in data set [1] (80% relative humidity) is reported as 3–20 wt. %. The “hysteresis of sorption profile” value in data set [1] (listed as hydrochloride salt) is listed as “significant hysteresis”.
Regarding `Cc1[nH]c(/C=C2\C(=O)Nc3ccc(F)cc32)c(C)c1C(=O)NC[C@H](O)CN1CCOCC1` [L-malate, 5-[(Z)-(5-fluoro-2-oxo-1,2-dihydro-3H-indol-3-ylidene)methyl]-N-[(2S)-2-hydroxy-3-morpholin-4-ylpropyl]-2,4-dimethyl-1H-pyrrole-3-carboxamide], the “Water Uptake at 80% RH (wt. %)” value in data set [1] (80% relative humidity) was 12–13 wt. %.
Still for that read-out and setting: with `Cc1[nH]c(/C=C2\C(=O)Nc3ccc(F)cc32)c(C)c1C(=O)NC[C@H](O)CN1CCOCC1` [Malonate, 5-[(Z)-(5-fluoro-2-oxo-1,2-dihydro-3H-indol-3-ylidene)methyl]-N-[(2S)-2-hydroxy-3-morpholin-4-ylpropyl]-2,4-dimethyl-1H-pyrrole-3-carboxamide] the figure was 12 wt. %.
On the same count and under the same terms, then `Cc1[nH]c(/C=C2\C(=O)Nc3ccc(F)cc32)c(C)c1C(=O)NC[C@H](O)CN1CCOCC1` [L-tartrate, 5-[(Z)-(5-fluoro-2-oxo-1,2-dihydro-3H-indol-3-ylidene)methyl]-N-[(2S)-2-hydroxy-3-morpholin-4-ylpropyl]-2,4-dimethyl-1H-pyrrole-3-carboxamide], with 9 wt. %.
